Data: patent publication US20100248223A1, “ASSESSING OUTCOMES FOR BREAST CANCER PATIENTS” (MAYO FOUNDATION FOR MEDICAL EDUCATION AND RESEARCH, priority 2006, published 2010)
Where two headings read alike, the source gives them in different places. Each block holds one molecule with its values, some of them ahead of it.

Key:
[1] = biological target: CYP2D6 enzyme system (Homo sapiens, UniProt P10635); conditions: classification from cited literature; cited from earlier work
[2] = test system: resected ER positive breast cancer; conditions: for 9 year RFS rate / 5-year DFS: node negative
Description: Patients. […] Postmenopausal women with node-negative disease were required to have stage T1c or T2N0M0 cancer and could be any age, whereas women with node-positive disease were required to be at least 65 years of age with a tumor stage T1 (any N) or T2N1M0. […] Patients were surgically treated with either a modified radical mastectomy or breast conservative therapy including lumpectomy, axillary nodal dissection, and radiation therapy. The axillary dissection must have involved at least levels I and II and the examination of at least 6 axillary nodes. […] Postlumpectomy radiation therapy consisted of a total cumulative breast dose of 5040 cGy in 28 fractions, and those with axillary nodal involvement also received radiation to the axilla and supraclavicular regions. Patients were classified as ER positive if resected breast tissue contained ≧10 fmol of ER polypeptide/mg cytosol protein or was positive for ER polypeptide by an immunohistochemical assay. All patients were randomized within 6 weeks of definitive surgery.
Patients were stratified based on axillary lymph node status (0, 1-3, 4-9 vs. 10 or more), age (<65 years vs. >65), primary tumor size (<3 cm vs. >3 cm), ER status (10-49 fmol vs. 50 fmol or greater vs. positive by immunohistochemical assay), and extent of surgery (mastectomy vs. breast conservation therapy).
Study Design and End Points. One objective of this study was to examine the relationship between the HOXB13:IL-17BR expression ratio and clinical outcomes of relapse-free survival, disease-free survival, and overall survival. Relapse-free survival (RFS) was defined as the time from randomization to documentation of the first of the following events: any recurrence (local, regional or distant) of breast cancer, a contralateral breast cancer or death. When estimating the distribution of RFS, patients who developed a non-breast second primary cancer (other than squamous or basal cell carcinoma of the skin, carcinoma in situ of the cervix, or lobular carcinoma in situ of the breast) prior to the diagnosis of a breast event were censored on the day their second primary was diagnosed. Patients who were alive without a breast recurrence, contralateral breast cancer or a second non-breast primary cancer were censored at the date of their last disease evaluation. Disease-free survival (DFS) was defined as the time from randomization to documentation of the first of the following events: any recurrence (local, regional or distant) of breast cancer, a contralateral breast cancer, a second primary cancer, or death due to any cause. Patients who were alive without any of these events were censored at the date of their last disease evaluation. Overall survival (OS) was estimated as the time from registration to death due to any cause.
Relapse-free (RF) time was defined as the time from randomization to documentation of a breast event where a breast event is any recurrence (local, regional, or distant) of breast cancer or the documentation of contralateral breast cancer (including ductal carcinoma in situ). When estimating the distribution of RF time, patients who developed a non-breast second primary cancer (other than squamous or basal cell carcinoma of the skin, carcinoma in situ of the cervix, or lobular carcinoma in situ of the breast) prior to the diagnosis of a breast event were censored on the day their second primary was diagnosed. Patients (alive or dead) without a breast recurrence, contralateral breast cancer or a second non-breast primary cancer were censored at the date of their last disease evaluation.
Disease-free survival (DFS) was defined as the time from randomization to documentation of the first of the following events: any recurrence (local, regional or distant) of breast cancer, the documentation of contralateral breast cancer, or death due to any cause.

[3] = patients with gene expression data (n=206), oral tamoxifen 20 mg daily for 5 years

CYP2D6 enzyme system, sequence (P10635 whole entry): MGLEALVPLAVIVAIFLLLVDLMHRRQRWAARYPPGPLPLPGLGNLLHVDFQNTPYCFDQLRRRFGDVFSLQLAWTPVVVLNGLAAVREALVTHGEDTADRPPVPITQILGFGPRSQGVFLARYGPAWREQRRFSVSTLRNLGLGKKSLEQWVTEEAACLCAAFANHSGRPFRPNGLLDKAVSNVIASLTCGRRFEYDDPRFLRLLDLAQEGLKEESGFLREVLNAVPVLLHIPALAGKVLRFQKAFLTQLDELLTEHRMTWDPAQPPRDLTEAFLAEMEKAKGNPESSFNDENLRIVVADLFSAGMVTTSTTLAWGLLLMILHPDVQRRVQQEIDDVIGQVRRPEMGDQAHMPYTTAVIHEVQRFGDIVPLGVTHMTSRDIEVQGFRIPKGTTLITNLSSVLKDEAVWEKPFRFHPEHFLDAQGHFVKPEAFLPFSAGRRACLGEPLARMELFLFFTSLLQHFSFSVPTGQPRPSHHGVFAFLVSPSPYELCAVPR

SMILES: CN[C@H]1CC[C@@H](c2ccc(Cl)c(Cl)c2)c2ccccc21 [sertraline]
strength of inhibition of the CYP2D6 enzyme system [1]: moderate

patients reporting mild (grade 1) hot flashes (223 patients): 40% | patients reporting moderate (grade 2) hot flashes (223 patients): 15% | patients reporting severe (grade 3) hot flashes (223 patients): 5% | % of patients who developed moderate or severe hot flashes (CYP2D6 (*4) *4/Wt genotype): 9/40 (23%) | % of patients who developed moderate or severe hot flashes (CYP2D6 (*4) Wt/Wt genotype): 27/137 (20%) | % of patients who developed moderate or severe hot flashes (CYP2D6 *4/WT or WT/WT genotypes (n=177)): 20% | % of patients who developed moderate or severe hot flashes (CYP3A5 (*3) A/A genotype): 1/6 (17%) | % of patients who developed moderate or severe hot flashes (CYP3A5 (*3) G/A genotype): 6/24 (25%) | % of patients who developed moderate or severe hot flashes (CYP3A5 (*3) G/G genotype): 37/175 (21%)
SMILES: CC/C(=C(\c1ccccc1)c1ccc(OCCN(C)C)cc1)c1ccccc1 [tamoxifen]
9 year RFS rate ([2]; Goetz index high risk): 46% | 9 year RFS rate ([2]; Goetz index intermediate risk): 65% | 9 year RFS rate ([2]; Goetz index low risk): 87% | 5-year DFS ([2]; risk profile 1: 2-gene ratio <−1.339, CYP2D6 extensive): 94% | 5-year DFS ([2]; risk profile 3: 2-gene ratio >−1.339, CYP2D6 extensive): 83% | 5-year DFS ([2]; risk profile 4: 2-gene ratio >−1.339, CYP2D6 decreased): 57% | Kaplan-Meier estimate for the 5 year DFS [2, 3]: 74.3% | Kaplan-Meier estimate for the 5 year OS [2, 3]: 78.2% | Kaplan-Meier estimate for the 5 year RFS [2, 3]: 75.6%

SMILES: CN(C)CCC=C1c2ccccc2COc2ccccc21 [doxepin]
strength of inhibition of the CYP2D6 enzyme system [1]: moderate

SMILES: Fc1ccc([C@@H]2CCNC[C@H]2COc2ccc3c(c2)OCO3)cc1 [paroxetine]
strength of inhibition of the CYP2D6 enzyme system [1]: potent

SMILES: O=C(CCCN1CCC(O)(c2ccc(Cl)cc2)CC1)c1ccc(F)cc1 [haloperidol]
strength of inhibition of the CYP2D6 enzyme system [1]: moderate

SMILES: CN/C(=N/CCSCc1nc[nH]c1C)NC#N [cimetidine]
strength of inhibition of the CYP2D6 enzyme system [1]: moderate
